Laboratory results taken from patent publication US6967196B1, “Sulfonamide compounds and uses thereof” (Bristol-Myers Squibb Company, priority 1999, dated 2005).
Where a name gives a salt, the structure may show the parent alone. Read-outs that look alike come from different tables or passages of the source.

System: amyloid β production in transfected H4 (human neuroglioma) cells stably expressing APP constructs
Assay: In vitro cell-based assay of inhibitors of amyloid β production (ELISA)
Settings: amyloid β in medium by ELISA, read-out: ACTIVITY (IC50, inhibition of amyloid β production)
Method in brief: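 H4 neuroglioma cells stably expressing APP constructs were dosed in fresh medium, screened initially at 10-100 μM, and incubated ~16 h. Medium Aβ was measured by ELISA with C-terminal-epitope capture and N-terminal detection antibodies, quantified from a standard curve, with dose-response testing of actives.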

[1] = transfected H4 cells stably expressing APP constructs, approximately 16 hours incubation
[2] = Homo sapiens, 16 h, transfected H4 cells stably expressing APP, approximately 16 hours incubation
[3] = transfected H4 cells stably expressing APP, approx. 16 h incubation
[4] = Homo sapiens, 16 h, transfected H4 cells expressing APP, approximately 16 hours incubation
[5] = transfected H4 cells stably expressing APP, approximately 16 hours incubation
[6] = Homo sapiens, 16 h, transfected H4 cells stably expressing APP, approx. 16 h incubation

4-tert-butyl-N-{3-[2-(1-{[(4-chlorophenyl)sulfonyl]-2,5-difluoroanilino}ethyl)phenoxy]propyl}benzamide [Example 274]
IC50 (transfected H4 cells stably expressing APP, approximately 16 hours incubation, Table B): 25 to 50 nM

C[C@H](CCCS(C)(=O)=O)N(c1cc(Cl)ccc1F)S(=O)(=O)c1ccc(Cl)cc1 [Example 1165, 4-chloro-N-[5-chloro-2-fluorophenyl]-N-[1(R)-methyl-(4-methylsulfonyl)butyl]benzenesulfonamide]
IC50 [1]: ≤ 25 nM

CC(C)(C)OC(=O)n1c(-c2ccccc2OCCCN2CCCCC2)cc2ccccc21 [Example 1021, tert-butyl 2-{2-[3-(1-piperidinyl)propoxy]phenyl}-1H-indole-1-carboxylate trifluoroacetate]
IC50 [2]: > 500 nM

O=S(=O)(c1ccc(Cl)cc1)N(Cc1cc(Cl)ccc1OCCCN1CCCCC1)c1ccccc1 [Example 964, 4-chloro-N-{5-chloro-2-[3-(1-piperidinyl)propoxy]benzyl}-N-phenylbenzenesulfonamide hydrochloride]
IC50 [2]: > 500 nM

2-((1R)-1-{[(4-chlorophenyl)-sulfonyl]-2,5-difluoroanilino}ethyl)benzyl benzyl(methyl)carbamate [Example 715]
IC50 [3]: 100 to 500 nM

C[C@H](C(=O)NC1CCCCCCC1)N(c1cc(Cl)ccc1F)S(=O)(=O)c1ccc(Cl)cc1 [Example 1345]
IC50 [4]: 100 to 500 nM

N-{3-[2-({[(4-chlorophenyl)sulfonyl]-2,5-difluoroanilino}methyl)phenoxy]propyl}-N-methyl-2-phenylcyclopropanecarboxamide [Example 917]
IC50 [5]: > 500 nM

CC(=O)Nc1nc(C)c(S(=O)(=O)N(Cc2ccccc2OCCCN2CCCCC2)c2cc(Cl)ccc2Cl)s1 [Example 1022, N-{5-[(2,5-dichloro{2-[3-(1-piperidinyl)propoxy]benzyl}anilino)sulfonyl]-4-methyl-1,3-thiazol-2-yl}acetamide hydrochloride]
IC50 [5]: > 500 nM

C[C@H](C(=O)NCC1CC1)C(c1cc(Cl)ccc1F)S(=O)(=O)c1ccc(Cl)cc1 (stereo partly shown) [Example 1303]
IC50 [4]: 100 to 500 nM

O=C1c2ccccc2C(=O)N1CCCOc1ccccc1CN(c1cc(F)ccc1F)S(=O)(=O)c1ccc(Cl)cc1 [Example 916, 4-chloro-N-(2,5-difluorophenyl)-N-{2-[3-(1,3-dioxo-1,3-dihydro-2H-isoindol-2-yl)propoxy]benzyl}benzenesulfonamide]
IC50 [2]: > 500 nM

4-chloro-N-(2,5-difluorophenyl)-N-[3-[2-[4-chloro-N-(2,5-difluorophenyl)-N-[(3-amino)-1(R)-methylpropyl]benzenesulfonamide]-3,4-dioxo-1-cyclobutenyl)amine-1(R)- [Example 1139]
IC50 [1]: 100 to 500 nM

C[C@H](CCCNC(=O)OCc1ccccc1)N(c1cc(Cl)ccc1Cl)S(=O)(=O)c1ccc(Cl)cc1 [Example 1155, 4-chloro-N-(2,5-dichlorophenyl)-N-[4-[[(benzoxy)carbonyl]amino]-1-methylbutyl]benzenesulfonamide]
IC50 (Homo sapiens, 16 h, transfected H4 cells stably expressing APP constructs, approximately 16 hours incubation): 100 to 500 nM

CCN(CC)C(=O)OC[C@@H](C)N(c1cc(Cl)ccc1CO)S(=O)(=O)c1ccc(Cl)cc1 [Example 1283]
IC50 [4]: ≤ 25 nM

O=C1CCN(CCCOc2ccccc2CN(c2ccccc2)S(=O)(=O)c2ccc(Cl)cc2)CC1 [Example 968, 4-chloro-N-{2-[3-(4-oxo-1-piperidinyl)propoxy]benzyl}-N-phenylbenzenesulfonamide hydrochloride]
IC50 [2]: > 500 nM

CC(C)CS(=O)(=O)CCC[C@@H](C)N(c1cc(Cl)ccc1Cl)S(=O)(=O)c1ccc(Cl)cc1 [Example 1184]
IC50 [1]: 25 to 50 nM

C[C@H](C(=O)NCCN1CCOCC1)N(c1cc(Cl)ccc1F)S(=O)(=O)c1ccc(Cl)cc1 [Example 1301]
IC50 [4]: > 500 nM

N-{3-[2-(1-{[(4-chlorophenyl)sulfonyl]-2,5-difluoroanilino}ethyl)phenoxy]propyl}-N-methyl-1-naphthalenesulfonamide [Example 776]
IC50 [3]: 100 to 500 nM

C[C@H](c1ccccc1OCCCN1CCCCC1)N(c1cc(F)ccc1F)S(=O)(=O)c1ccc(Cl)cc1 [Example 1061, 4-chloro-N-(2,5-difluorophenyl)-N-((1R)-1-{2-[3-(1-piperidinyl)propoxy]phenyl}ethyl)benzenesulfonamide hydrochloride]
IC50 [2]: > 500 nM

N-{2-[2-(1-{[(4-chlorophenyl)sulfonyl]-2,5-difluoroanilino}ethyl)phenoxy]ethyl}-N-ethyl-3-methylbutanamide [Example 694]
IC50 [3]: 100 to 500 nM

O=S1(=O)c2ccc(Cl)cc2-c2ccccc2N1Cc1ccccc1OCCCN1CCCCC1 [Example 948, 2-chloro-5-{2-[3-(1-piperidinyl)propoxy]benzyl}-6H-dibenzo]c,e][1,2]thiazine 5,5-dioxide hydrochloride]
IC50 [5]: > 500 nM

C[C@H](c1ccc(F)cc1CCCC(=O)O)N(c1cc(F)ccc1F)S(=O)(=O)c1ccc(Cl)cc1 [Example 1080, 4-[2-((1R)-1-{[(4-chlorophenyl)sulfonyl]-2,5-difluoroanilino}ethyl)-5-fluorophenyl]butanoic acid]
IC50 [5]: > 500 nM

C[C@H](COC(=O)N1CCC[C@H]1CO)N(c1cc(Cl)ccc1Cl)S(=O)(=O)c1ccc(Cl)cc1 [Example 1241]
IC50 [1]: ≤ 25 nM

O=S(=O)(c1ccc(Cl)cc1)N(Cc1ccccc1OCCCN1CCCCC1)c1ccc(Cl)cc1Cl [Example 706, 4-chloro-N-(2,4-dichlorophenyl)-N-{2-[3-(1-piperidinyl)propoxy]benzyl}benzenesulfonamide hydrochloride]
IC50 [6]: 100 to 500 nM

C[C@H](C(=O)NC1CCC(C(C)(C)C)CC1)N(c1cc(Cl)ccc1F)S(=O)(=O)c1ccc(Cl)cc1 (stereo partly shown) [Example 1316]
IC50 [4]: > 500 nM

O=S(=O)(c1ccc(Cl)cc1)N(Cc1ccccc1OCCCN1CCC2(CC1)OCCO2)c1ccccc1 [Example 877, 4-chloro-N-{2-[3-(1,4-dioxa-8-azaspiro[4.5]dec-8-yl)propoxy]benzyl}-N-phenylbenzenesulfonamide]
IC50 [2]: 100 to 500 nM

CCN(CC)C(=O)N(CC)CCOc1ccccc1C(C)N(c1cc(F)ccc1F)S(=O)(=O)c1ccc(Cl)cc1 (stereo not shown) [Example 698, 4-chloro-N-[1-(2-{2-[[(diethylamino)carbonyl](ethyl)amino]ethoxy}phenyl)ethyl]-N-(2,5-difluorophenyl)benzenesulfonamide]
IC50 [6]: 100 to 500 nM

N-{2-[2-(1-{[(4-chlorophenyl)sulfonyl]-2,5-difluoroanilino}ethyl)phenoxy]ethyl}-3-cyclopentyl-N-methylpropanamide [Example 653]
IC50 [3]: 100 to 500 nM

C[C@H](C(=O)NCc1c(F)cccc1F)N(c1cc(Cl)ccc1F)S(=O)(=O)c1ccc(Cl)cc1 [Example 1327]
IC50 [4]: > 500 nM

O=S(=O)(c1ccc(Cl)cc1)N(Cc1ccccc1OCCCN1CCCCC1)C1CCCCCC1 [Example 897, 4-chloro-N-cycloheptyl-N-{2-[3-(1-piperidinyl)propoxy]benzyl}benzenesulfonamide hydrochloride]
IC50 [2]: > 500 nM

N-{3-[2-({[(4-chlorophenyl)sulfonyl]-2,5-difluoroanilino}methyl)phenoxy]propyl}-N,2-dimethylbenzamide [Example 680]
IC50 [3]: 100 to 500 nM

C[C@@H](C(=O)NCc1ccccc1Sc1ccccc1CO)N(c1cc(Cl)ccc1F)S(=O)(=O)c1ccc(Cl)cc1 [Example 1363]
IC50 [4]: > 500 nM
